Source: patent publication US20080021026A1, “BENZOTHIOPHENE INHIBITORS OF RHO KINASE” (priority 2006, published 2008)

biological target: T1, recombinant N-terminal GST-tagged human Rho kinase 2 (ROCK2, amino acids 1-552) (Homo sapiens, UniProt O75116); assay: In vitro Rho kinase assay (luciferase-based ATP consumption), ROCK2; assay type: biochemical; details: recombinant GST-tagged human ROCK2, luciferase-based ATP consumption; read-out: ROCK2 IC50
T1 construct: ROCK2, amino acids 1-552; purchased Invitrogen Inc. PV3759
Protocol: In Vitro Rho Kinase Assay
Rho kinase biochemical assays described below depend on firefly luciferase-based, indirect measurement of total ATP consumption by the kinase following incubation with substrate and ATP. 25 μl of Rho kinase assay buffer (20 mM Tris-HCL [pH 7.5], 1 mM MgCl2, 0.4 mM CaCl2, 0.15 mM EGTA, 0.1 mg/ml bovine serum albumin) containing 0.82 μg/ml of recombinant N-terminal GST-tagged human Rho kinase 1 (ROCK1, amino acids 1-535, Invitrogen Inc., cat. #PV-3691) or recombinant N-terminal GST-tagged human Rho kinase 2 (ROCK2, amino acids 1-552, Invitrogen Inc., cat #PV3759), 100 μg/ml S6 peptide substrate (related to amino acids 218-249 of the human 40S ribosomal protein S6, and suitable for ROCK1 or ROCK2, e.g. Upstate/Millipore Inc., cat #12-420), and 3 µM ATP are dispensed to wells of a 384 multi-well opaque plate. The plate is centrifuged for 30 seconds at approximately 200×g. 240 nl of test compound in DMSO is dispensed to each well by passive pin transfer. The lag phase of this in vitro kinase reaction permits addition of compounds soon after the reaction initiates. The reaction is allowed to incubate at 30° C. for 2 hours. The assay plates are sealed and maintained in a humidified environment. After 2 hours, 25 μl of easylite protein kinase assay reagent (Perkin-Elmer, Inc.) is dispensed. After an additional 10 minute incubation at room temperature (about 22° C.), luminescence activity is measured on a Molecular Devices Analyst multi-mode plate reader or other suitable plate reader. Kinase inhibition results in less ATP consumption, and therefore increased luminescence signal. Negative control activity is measured with DMSO lacking any test compound. The positive control is 2-methyl-1-(4-methylisoquinolin-5-ylsulfonyl)perhydro-1,4-diazepine hydrochloride (aka H-1152P, HCl salt). Efficacy is measured as a percentage of positive control activity. […] In some cases, kinase reactions and compound testing are performed in 1536 multi-well plates under similar conditions, with assay volumes appropriately scaled. The designation NT means the cited example was not tested.

T1 sequence (O75116 1-552): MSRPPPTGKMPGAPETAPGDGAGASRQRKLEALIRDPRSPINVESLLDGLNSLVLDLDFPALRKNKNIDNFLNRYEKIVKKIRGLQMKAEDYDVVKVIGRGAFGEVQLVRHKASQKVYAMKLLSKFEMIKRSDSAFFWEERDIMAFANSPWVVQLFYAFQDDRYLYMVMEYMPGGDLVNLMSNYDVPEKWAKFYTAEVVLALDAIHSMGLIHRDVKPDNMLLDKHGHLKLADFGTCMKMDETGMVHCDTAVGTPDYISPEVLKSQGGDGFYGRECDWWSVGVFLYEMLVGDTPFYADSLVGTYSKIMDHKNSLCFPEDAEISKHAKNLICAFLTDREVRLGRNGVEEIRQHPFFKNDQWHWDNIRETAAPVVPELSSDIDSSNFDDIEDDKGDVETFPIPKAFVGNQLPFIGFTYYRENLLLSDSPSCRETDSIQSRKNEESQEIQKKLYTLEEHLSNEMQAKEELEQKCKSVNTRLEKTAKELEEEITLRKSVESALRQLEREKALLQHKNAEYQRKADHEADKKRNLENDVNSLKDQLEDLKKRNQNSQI

| Compound | IC50 [µM] |
| --- | --- |
| Cc1c(-c2ccnc(N)n2)sc2ccc(C(=O)NC(C)C)cc12 [Example 334, CC(C)NC(═O)c1ccc2sc(c(C)c2c1)-c3ccnc(N)n3] | > 5 |
| Cc1c(-c2ccnc(N)n2)sc2ccc(C(=O)NC(C)C(C)C)cc12 (stereo not drawn) [Example 349, CC(C)C(C)NC(═O)c1ccc2sc(c(C)c2c1)-c3ccnc(N)n3] | > 5 |
| COCC(C)NC(=O)c1ccc2sc(-c3ccnc(N)n3)c(C)c2c1 (stereo not drawn) [Example 352, COCC(C)NC(═O)c1ccc2sc(c(C)c2c1)-c3ccnc(N)n3] | > 5 |
| CCC(CO)NC(=O)c1ccc2sc(-c3ccnc(N)n3)c(C)c2c1 (stereo not drawn) [Example 353, CCC(CO)NC(═O)c1ccc2sc(c(C)c2c1)-c3ccnc(N)n3] | < 5 |
| Cc1c(-c2ccnc(N)n2)sc2ccc(C(=O)NCCCCO)cc12 [Example 354, Cc1c(sc2ccc(cc12)C(═O)NCCCCO)-c3ccnc(N)n3] | < 5 |
| Cc1c(-c2ccnc(N)n2)sc2ccc(C(=O)NCc3ccco3)cc12 [Example 355, Cc1c(sc2ccc(cc12)C(═O)NCc3ccco3)-c4ccnc(N)n4] | < 5 |
| Cc1c(-c2ccnc(N)n2)sc2ccc(C(=O)NC3CCCCC3)cc12 [Example 356, Cc1c(sc2ccc(cc12)C(═O)NC3CCCCC3)-c4ccnc(N)n4] | > 5 |
| Cc1c(-c2ccnc(N)n2)sc2ccc(C(=O)NCC3CCCO3)cc12 (stereo not drawn) [Example 357, Cc1c(sc2ccc(cc12)C(═O)NCC3CCCO3)-c4ccnc(N)n4] | < 5 |
| Cc1c(-c2ccnc(N)n2)sc2ccc(C(=O)NCCC(C)(C)C)cc12 [Example 358, Cc1c(sc2ccc(cc12)C(═O)NCCC(C)(C)C)-c3ccnc(N)n3] | < 5 |
| Cc1c(-c2ccnc(N)n2)sc2ccc(C(=O)NC(C)CC(C)C)cc12 (stereo not drawn) [Example 359, CC(C)CC(C)NC(═O)c1ccc2sc(c(C)c2c1)-c3ccnc(N)n3] | > 5 |
| Cc1c(-c2ccnc(N)n2)sc2ccc(C(=O)NC3CONC3=O)cc12 (stereo not drawn) [Example 360, Cc1c(sc2ccc(cc12)C(═O)NC3CONC3═O)-c4ccnc(N)n4] | < 5 |
| Cc1c(-c2ccnc(N)n2)sc2ccc(C(=O)NN3CCOCC3)cc12 [Example 361, Cc1c(sc2ccc(cc12)C(═O)NN3CCOCC3)-c4ccnc(N)n4] | < 5 |
| Cc1c(-c2ccnc(N)n2)sc2ccc(C(=O)NC(CO)C(C)C)cc12 (stereo not drawn) [Example 362, CC(C)C(CO)NC(═O)c1ccc2sc(c(C)c2c1)-c3ccnc(N)n3] | < 5 |
| Cc1c(-c2ccnc(N)n2)sc2ccc(C(=O)NCc3ccccc3)cc12 [Example 363, Cc1c(sc2ccc(cc12)C(═O)NCc3ccccc3)-c4ccnc(N)n4] | < 5 |
| Cc1c(-c2ccnc(N)n2)sc2ccc(C(=O)NCc3cccnc3)cc12 [Example 364, Cc1c(sc2ccc(cc12)C(═O)NCc3cccnc3)-c4ccnc(N)n4] | < 5 |
| Cc1c(-c2ccnc(N)n2)sc2ccc(C(=O)NCc3ccccn3)cc12 [Example 365, Cc1c(sc2ccc(cc12)C(═O)NCc3ccccn3)-c4ccnc(N)n4] | < 5 |
| Cc1c(-c2ccnc(N)n2)sc2ccc(C(=O)NCc3ccncc3)cc12 [Example 366, Cc1c(sc2ccc(cc12)C(═O)NCc3ccncc3)-c4ccnc(N)n4] | < 5 |
| Cc1c(-c2ccnc(N)n2)sc2ccc(C(=O)NCc3cccs3)cc12 [Example 367, Cc1c(sc2ccc(cc12)C(═O)NCc3cccs3)-c4ccnc(N)n4] | < 5 |
| Cc1c(-c2ccnc(N)n2)sc2ccc(C(=O)NC3CCC(C)CC3)cc12 (stereo not drawn) [Example 368, CC1CCC(CC1)NC(═O)c2ccc3sc(c(C)c3c2)-c4ccnc(N)n4] | > 5 |
| Cc1c(-c2ccnc(N)n2)sc2ccc(C(=O)NCC3CCCCC3)cc12 [Example 369, Cc1c(sc2ccc(cc12)C(═O)NCC3CCCCC3)-c4ccnc(N)n4] | < 5 |
| Cc1c(-c2ccnc(N)n2)sc2ccc(C(=O)NC3CCCCCC3)cc12 [Example 370, Cc1c(sc2ccc(cc12)C(═O)NC3CCCCCC3)-c4ccnc(N)n4] | > 5 |
| Cc1c(-c2ccnc(N)n2)sc2ccc(C(=O)NC3CCCCC3C)cc12 (stereo not drawn) [Example 371, CC1CCCCC1NC(═O)c2ccc3sc(c(C)c3c2)-c4ccnc(N)n4] | > 5 |
| Cc1c(-c2ccnc(N)n2)sc2ccc(C(=O)NCCN3CCCC3)cc12 [Example 372, Cc1c(sc2ccc(cc12)C(═O)NCCN3CCCC3)-c4ccnc(N)n4] | < 5 |
| Cc1c(-c2ccnc(N)n2)sc2ccc(C(=O)NN3CCN(C)CC3)cc12 [Example 373, CN1CCN(CC1)NC(═O)c2ccc3sc(c(C)c3c2)-c4ccnc(N)n4] | < 5 |
| CCN(CC)CCNC(=O)c1ccc2sc(-c3ccnc(N)n3)c(C)c2c1 [Example 374, CCN(CC)CCNC(═O)c1ccc2sc(c(C)c2c1)-c3ccnc(N)n3] | < 5 |

More lines, now with the values ahead:

| IC50 [µM] | Compound |
| --- | --- |
| < 5 | Cc1c(-c2ccnc(N)n2)sc2ccc(Nc3cccc(O)c3)cc12 [Example 52, 3-(2-(2-Aminopyrimidin-4-yl)-3-methylbenzo[b]thiophen-5-ylamino)phenol] |
| < 5 | Cc1c(-c2ccnc(N)n2)sc2ccc(Oc3cccc(O)c3)cc12 [Example 82, 3-(2-(2-Aminopyrimidin-4-yl)-3-methylbenzo[b]thiophen-5-yloxy)phenol] |
| < 5 | CNC(=O)c1ccc2sc(-c3ccnc(N)n3)c(C)c2c1 [Example 329, CNC(═O)c1ccc2sc(c(C)c2c1)-c3ccnc(N)n3] |
| < 5 | CCNC(=O)c1ccc2sc(-c3ccnc(N)n3)c(C)c2c1 [Example 330, CCNC(═O)c1ccc2sc(c(C)c2c1)-c3ccnc(N)n3] |
| < 5 | C#CCNC(=O)c1ccc2sc(-c3ccnc(N)n3)c(C)c2c1 [Example 331, Cc1c(sc2ccc(cc12)C(═O)NCC#C)-c3ccnc(N)n3] |
| < 5 | Cc1c(-c2ccnc(N)n2)sc2ccc(C(=O)NCC#N)cc12 [Example 332, Cc1c(sc2ccc(cc12)C(═O)NCC#N)-c3ccnc(N)n3] |
| < 5 | Cc1c(-c2ccnc(N)n2)sc2ccc(C(=O)NC3CC3)cc12 [Example 333, Cc1c(sc2ccc(cc12)C(═O)NC3CC3)-c4ccnc(N)n4] |
| < 5 | CCCNC(=O)c1ccc2sc(-c3ccnc(N)n3)c(C)c2c1 [Example 335, CCCNC(═O)c1ccc2sc(c(C)c2c1)-c3ccnc(N)n3] |
| < 5 | Cc1c(-c2ccnc(N)n2)sc2ccc(C(=O)NCCN)cc12 [Example 336, Cc1c(sc2ccc(cc12)C(═O)NCCN)-c3ccnc(N)n3] |
| < 5 | Cc1c(-c2ccnc(N)n2)sc2ccc(C(=O)NCCO)cc12 [Example 337, Cc1c(sc2ccc(cc12)C(═O)NCCO)-c3ccnc(N)n3] |
| < 5 | Cc1c(-c2ccnc(N)n2)sc2ccc(C(=O)NCCC#N)cc12 [Example 338, Cc1c(sc2ccc(cc12)C(═O)NCCC#N)-c3ccnc(N)n3] |
| < 5 | Cc1c(-c2ccnc(N)n2)sc2ccc(C(=O)NC3CCC3)cc12 [Example 339, Cc1c(sc2ccc(cc12)C(═O)NC3CCC3)-c4ccnc(N)n4] |
| < 5 | Cc1c(-c2ccnc(N)n2)sc2ccc(C(=O)NCC3CC3)cc12 [Example 340, Cc1c(sc2ccc(cc12)C(═O)NCC3CC3)-c4ccnc(N)n4] |
| < 5 | CCC(C)NC(=O)c1ccc2sc(-c3ccnc(N)n3)c(C)c2c1 (stereo not drawn) [Example 341, CCC(C)NC(═O)c1ccc2sc(c(C)c2c1)-c3ccnc(N)n3] |
| < 5 | Cc1c(-c2ccnc(N)n2)sc2ccc(C(=O)NCC(C)C)cc12 [Example 342, CC(C)CNC(═O)c1ccc2sc(c(C)c2c1)-c3ccnc(N)n3] |
| < 5 | Cc1c(-c2ccnc(N)n2)sc2ccc(C(=O)NCCCO)cc12 [Example 343, Cc1c(sc2ccc(cc12)C(═O)NCCCO)-c3ccnc(N)n3] |
| < 5 | Cc1c(-c2ccnc(N)n2)sc2ccc(C(=O)NC(C)CO)cc12 (stereo not drawn) [Example 344, CC(CO)NC(═O)c1ccc2sc(c(C)c2c1)-c3ccnc(N)n3] |
| < 5 | COCCNC(=O)c1ccc2sc(-c3ccnc(N)n3)c(C)c2c1 [Example 345, COCCNC(═O)c1ccc2sc(c(C)c2c1)-c3ccnc(N)n3] |
| < 5 | Cc1c(-c2ccnc(N)n2)sc2ccc(C(=O)NC3CCCC3)cc12 [Example 346, Cc1c(sc2ccc(cc12)C(═O)NC3CCCC3)-c4ccnc(N)n4] |
| < 5 | CCCC(C)NC(=O)c1ccc2sc(-c3ccnc(N)n3)c(C)c2c1 (stereo not drawn) [Example 347, CCCC(C)NC(═O)c1ccc2sc(c(C)c2c1)-c3ccnc(N)n3] |
| < 5 | CCC(C)CNC(=O)c1ccc2sc(-c3ccnc(N)n3)c(C)c2c1 (stereo not drawn) [Example 348, CCC(C)CNC(═O)c1ccc2sc(c(C)c2c1)-c3ccnc(N)n3] |
| < 5 | Cc1c(-c2ccnc(N)n2)sc2ccc(C(=O)NCCC(C)C)cc12 [Example 350, CC(C)CCNC(═O)c1ccc2sc(c(C)c2c1)-c3ccnc(N)n3] |
| < 5 | Cc1c(-c2ccnc(N)n2)sc2ccc(C(=O)NCCN(C)C)cc12 [Example 351, CN(C)CCNC(═O)c1ccc2sc(c(C)c2c1)-c3ccnc(N)n3] |
